Assays:
[1] = tested on: SNL-induced motor phenotype; test: Fine motor kinematic gait analysis (MotoRater) in SNL model; type: in vivo, Sprague-Dawley rats; details: for overall gait score, CBC compared to pregabalin: p: CBC 10 mg/kg vs. pregabalin 50 mg/kg; for Knee ROM Deviation [degree]: Stats: vehicle vs. treatment group; for Overall kinematic gait score, Vehicle vs. treatment: Summary / Overall kinematic gait score, Vehicle vs. treatment: Predicted (LS) mean diff.: between groups; for Overall kinematic gait score, Vehicle vs. treatment: Predicted (LS) mean diff. / Overall kinematic gait score, D7 vs. D8 5 h: Predicted (LS) mean diff. / Overall kinematic gait score, D7 vs. D8 9 h: Predicted (LS) mean diff. / Overall kinematic gait score, D7 vs. D9: Predicted (LS) mean diff. / Overall kinematic gait score, D7 vs. Baseline: Predicted (LS) mean diff.: z-score; for Ankle Angle, Max [degree]: Stats: vehicle vs. treatment, pregabalin 50 mg/kg; for Overall kinematic gait score, D7 vs. D8 5 h: Summary / Overall kinematic gait score, D7 vs. D8 9 h: Summary / Overall kinematic gait score, D7 vs. D9: Summary / Overall kinematic gait score, D7 vs. Baseline: Summary / Overall kinematic gait score, D7 vs. D8 5 h: Predicted (LS) mean diff. / Overall kinematic gait score, D7 vs. D8 9 h: Predicted (LS) mean diff. / Overall kinematic gait score, D7 vs. D9: Predicted (LS) mean diff. / Overall kinematic gait score, D7 vs. Baseline: Predicted (LS) mean diff.: within group; for Overall kinematic gait score, D7 vs. Baseline: Summary / Overall kinematic gait score, D7 vs. Baseline: Predicted (LS) mean diff.: before dosing
Experimental: The treatment groups received the following test article mixtures: • Group 1: treated with vehicle (0.9% saline) • Group 2: treated with Pregabalin (50 mg/kg) • Group 3: treated with CBC (10 mg/kg)
Administration of Treatments. CBC (cannabichromene) formulation, the vehicle, or pregabalin treatment was administered according to Table 1 on study day 8 to all study animals, and on study day 10 to 6 animals per group. The dousing route of CBC or the vehicle were intragastric (p.o.), while pregabalin was administered intraperitoneally (i.p.). In addition to D8, pregabalin was administered on D9, at 2 h prior to the evf test. All animals of the pregabalin group were euthanized on D9, following the last test trial. The CBC was dissolved and diluted to one of the following vehicles:
Fine Motor Kinematic Gait Analysis. The subjected to gait analysis at the baseline and on study days 8, 9, 11, 14 and 17, at a minimum of 30 min after the evF test. The assay was carried out by MotoRater (TSE Systems, Homburg, Germany), with the walking mode. Prior to commencing the test, the essential body points (e.g. joints, limbs, nose, tail) were marked for tracking. The information of the gait performance was captured using a high speed camera (300 frames/second) from below and both sides. Next, the captured videos are converted to custom software. The raw data was obtained by tracking the marked points of the body from the videos recorded from all 3 dimensions. The raw data thus comprise correlation of the movements of different body points in coordinates related to the ground and each three dimensions.
Different gait patterns and movements were analyzed using a custom made automated analysis system. Information about altogether over a hundred kinematic parameters were attained. These comprised e.g:
All MotoRater data were analyzed for the distinct parameters, as well as for all combined parameters, using principal component analysis (PCA). The obtained results produce the model phenotype in gait analysis i.e. the difference between vehicle and cannabinoid treated animals regarding both individual parameters and PCA.
In addition to the baseline test, the motorater test was performed altogether four times over the course of behavioral study phase: • on D7, to assess the model-specific motor defects prior to dosing, • on D8, after finishing the 4-h evF, • on D8, after finishing the 8-h evF, and • on D9, after finishing the 24-h evF.
The kinematic assay was not performed to the animals before a minimum of 30 min after evF test.

[2] = Body weight in OIPN study; type: in vivo, C57BL/6J mice; details: OIPN mice; CBC 20 mg/kg p.o., Duloxetine 25 mg/kg i.p.
Experimental: Body Weight—Animal body weights were measured before assigning the treatment groups and then on each day of the study. The last body weight measurement was performed upon endpoint sampling. Terminal body weights were not collected from animals found dead or euthanized moribund.

[3] = biological target: TRPA1 (Transient Receptor potential A1) channels (Homo sapiens, UniProt O75762); details: among phytocannabinoids; cited from earlier work
Chain of TRPA1 (Transient Receptor potential A1) channels (O75762 whole entry): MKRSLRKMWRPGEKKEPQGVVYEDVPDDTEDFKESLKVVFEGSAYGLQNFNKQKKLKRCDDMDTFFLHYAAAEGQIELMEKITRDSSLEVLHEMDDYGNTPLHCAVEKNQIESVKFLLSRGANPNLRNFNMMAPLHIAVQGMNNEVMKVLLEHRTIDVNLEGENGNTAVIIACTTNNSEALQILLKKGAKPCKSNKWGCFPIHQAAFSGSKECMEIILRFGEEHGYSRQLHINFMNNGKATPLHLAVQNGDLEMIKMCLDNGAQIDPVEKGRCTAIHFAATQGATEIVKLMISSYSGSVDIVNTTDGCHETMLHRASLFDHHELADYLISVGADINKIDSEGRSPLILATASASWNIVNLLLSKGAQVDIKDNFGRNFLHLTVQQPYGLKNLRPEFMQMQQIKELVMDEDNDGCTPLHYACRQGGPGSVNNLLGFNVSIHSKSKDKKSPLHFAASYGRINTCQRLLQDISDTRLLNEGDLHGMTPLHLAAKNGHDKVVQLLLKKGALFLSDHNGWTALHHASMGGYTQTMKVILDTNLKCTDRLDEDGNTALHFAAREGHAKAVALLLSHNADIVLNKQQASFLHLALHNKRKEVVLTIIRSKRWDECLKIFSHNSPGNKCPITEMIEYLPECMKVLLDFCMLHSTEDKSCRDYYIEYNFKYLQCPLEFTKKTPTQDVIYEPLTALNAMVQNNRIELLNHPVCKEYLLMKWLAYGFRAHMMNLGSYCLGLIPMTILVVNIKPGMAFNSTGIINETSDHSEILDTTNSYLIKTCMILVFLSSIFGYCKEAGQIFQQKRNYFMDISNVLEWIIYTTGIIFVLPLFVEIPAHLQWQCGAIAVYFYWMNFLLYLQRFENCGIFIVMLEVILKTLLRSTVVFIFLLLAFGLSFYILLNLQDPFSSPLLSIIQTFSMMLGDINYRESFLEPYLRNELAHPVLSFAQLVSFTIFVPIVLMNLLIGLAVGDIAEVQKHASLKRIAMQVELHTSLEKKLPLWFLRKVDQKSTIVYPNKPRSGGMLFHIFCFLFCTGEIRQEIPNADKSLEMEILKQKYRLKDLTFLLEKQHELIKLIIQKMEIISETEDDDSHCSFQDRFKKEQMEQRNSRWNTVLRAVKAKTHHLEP

[4] = biological target: CB1 receptors (Homo sapiens, UniProt P21554); details: cited from earlier work
Chain of CB1 receptors (P21554 whole entry): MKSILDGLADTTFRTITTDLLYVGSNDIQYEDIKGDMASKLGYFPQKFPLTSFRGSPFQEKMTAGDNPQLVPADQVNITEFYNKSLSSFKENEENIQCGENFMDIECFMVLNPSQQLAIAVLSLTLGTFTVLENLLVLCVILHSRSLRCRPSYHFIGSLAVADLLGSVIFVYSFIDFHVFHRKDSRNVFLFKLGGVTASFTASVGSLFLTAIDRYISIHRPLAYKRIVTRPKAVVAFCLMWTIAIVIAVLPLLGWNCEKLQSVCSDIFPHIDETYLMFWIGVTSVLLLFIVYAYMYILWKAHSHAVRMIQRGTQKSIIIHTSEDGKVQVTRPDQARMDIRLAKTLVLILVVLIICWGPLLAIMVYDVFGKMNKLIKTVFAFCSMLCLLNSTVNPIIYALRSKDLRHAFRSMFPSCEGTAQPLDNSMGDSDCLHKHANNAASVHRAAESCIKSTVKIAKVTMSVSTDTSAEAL

[5] = Welfare observations in OIPN study; type: in vivo, C57BL/6J mice; details: CBC 20 mg/kg p.o., OIPN mice
From the text: Seven mice were disqualified from further study due to showing too mild cool allodynia.

[6] = biological target: CB2 receptors (Homo sapiens, UniProt P34972); details: read-out: affinity (Ki) for CB2 receptors; cited from earlier work
Chain of CB2 receptors (P34972 whole entry): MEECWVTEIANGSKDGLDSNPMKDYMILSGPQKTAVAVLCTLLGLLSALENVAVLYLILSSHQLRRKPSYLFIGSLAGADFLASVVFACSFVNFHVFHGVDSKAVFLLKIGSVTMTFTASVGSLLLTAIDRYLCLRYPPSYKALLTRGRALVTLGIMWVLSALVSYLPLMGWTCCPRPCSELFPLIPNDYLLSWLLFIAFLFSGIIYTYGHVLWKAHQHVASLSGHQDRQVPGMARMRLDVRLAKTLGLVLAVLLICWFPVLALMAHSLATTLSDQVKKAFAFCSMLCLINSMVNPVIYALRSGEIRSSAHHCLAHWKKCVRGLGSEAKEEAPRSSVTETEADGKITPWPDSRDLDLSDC

[7] = BL (before dosing), vehicle vs. CBC 10 mg/kg group
[8] = Baseline (before SNL and dosing)
[9] = D8 5 h, CBC 10 mg/kg p.o., pregabalin 50 mg/kg i.p.
[10] = D 8 5 h, vehicle vs. CBC 10 mg/kg
[11] = D8 9 h, CBC 10 mg/kg p.o., pregabalin 50 mg/kg i.p.
[12] = D9, CBC 10 mg/kg p.o., pregabalin 50 mg/kg i.p.
[13] = Table 8, BL (before dosing), vehicle vs. CBC 10 mg/kg group
[14] = Table 8, D 8 5 h, vehicle vs. CBC 10 mg/kg
[15] = CBC 10 mg/kg p.o., pregabalin 50 mg/kg i.p.
[16] = BL (before dosing), vehicle vs. pregabalin group
[17] = D 7 (pre-dosing), vehicle vs. pregabalin group

## CCCCCc1cc(O)c2c(c1)OC(C)(CCC=C(C)C)C=C2 (stereo not drawn) [CBC, cannabichromene]
[1]; 5 h PD
  overall gait score, CBC compared to pregabalin: p: 0.07693
[1]; 9 h PD
  overall gait score, CBC compared to pregabalin: p: 0.04717
[1]; [7]
  Ankle ROM Deviation [degree]: Stats: 2.98
  Homolateral Interlimb coordination: Stats: 2.84
  Swing Speed Metric, Hind: Stats: −3.67
[1]; BL (before dosing)
  Knee ROM Deviation [degree]: Stats: 2.88
[1]; [8]
  Overall kinematic gait score, Vehicle vs. treatment: Summary: ns
  Overall kinematic gait score, Vehicle vs. treatment: Predicted (LS) mean diff.: −1
[1]; CBC 10 mg/kg
  overall Gait score compared to Vehicle: did not show a significant reduction in overall Gait score compared to Vehicle
  overall gait score, within group comparisons over time: did not identify a significant time-bound overall gait score difference
[1]; D7 (pre-dosing)
  Overall kinematic gait score, Vehicle vs. treatment: Summary: ns
  Overall kinematic gait score, Vehicle vs. treatment: Predicted (LS) mean diff.: 0.1511
[1]; [9]
  Overall kinematic gait score, Vehicle vs. treatment: Summary: ns
  Overall kinematic gait score, Vehicle vs. treatment: Predicted (LS) mean diff.: 1.116
[1]; [10]
  Hip Angle, Max [degree]: Stats: 4.29
  Knee Angle, Min [degree]: Stats: 3.78
  Mean Hip Jerk [m/s3]: Adjusted p-value: 0.01
  Mean Hip Jerk [m/s3]: Adjusted p-value Sig?: ** (** p≤0.01)
  Mean Hip Jerk [m/s3]: Stats: −3.04
  Mean Hip Jerk [m/s3]: p-value: 0.01
  Protraction, Hind [m]: Stats: −4.42
  Retraction, Hind [m]: Stats: 4.26
  Step Width, Fore [mm]: Stats: −2.86
[1]; D 8 5 h, CBC 10 mg/kg
  Ankle Angle, Max [degree]: Stats: −2.85
[1]; [11]
  Overall kinematic gait score, Vehicle vs. treatment: Summary: ns
  Overall kinematic gait score, Vehicle vs. treatment: Predicted (LS) mean diff.: 0.654
[1]; [12]
  Overall kinematic gait score, Vehicle vs. treatment: Summary: ns
  Overall kinematic gait score, Vehicle vs. treatment: Predicted (LS) mean diff.: −0.4602
[1]; D9 post-dosing, CBC 10 mg/kg
  Homolateral Interlimb coordination, CBC vs. Vehicle: p: 0.03
[1]; [13]
  Ankle ROM: Significance: * (p<0.05, significant)
  Ankle ROM: Statistic: 2.98
  Homolateral: Significance: * (p<0.05, significant)
  Homolateral: Statistic: 2.84
  Knee ROM: Significance: * (p<0.05, significant)
  Knee ROM: Statistic: 2.88
  Swing Speed: Significance: ** (p<0.01, very significant)
  Swing Speed: Statistic: −3.67
[1]; [14]
  Ankle Angle. Max: Significance: * (p<0.05, significant)
  Ankle Angle. Max: Statistic: −2.85
  Hip Angle. Max: Significance: *** (p<0.001, extremely/highly significant)
  Hip Angle. Max: Statistic: 4.29
  Knee Angle. Min: Significance: ** (p<0.01, very significant)
  Knee Angle. Min: Statistic: 3.78
  Mean Hip Jerk: Significance: * (p<0.05, significant)
  Mean Hip Jerk: Statistic: −3.04
  Mean Hip Jerk: p-value: 0.00953
  Protraction. Hind: Significance: *** (p<0.001, extremely/highly significant)
  Protraction. Hind: Statistic: −4.42
  Retraction. Hind: Significance: *** (p<0.001, extremely/highly significant)
  Retraction. Hind: Statistic: 4.26
  Step Width. Fore: Significance: * (p<0.05, significant)
  Step Width. Fore: Statistic: −2.86
[1]; baseline to D9, CBC 10 mg/kg
  Support Metric gait variables compared to Vehicle: No statistical significance was observed
[1]; [15]
  Overall kinematic gait score, D7 vs. D8 5 h: Summary: ns
  Overall kinematic gait score, D7 vs. D8 9 h: Summary: ns
  Overall kinematic gait score, D7 vs. D9: Summary: ns
  Overall kinematic gait score, D7 vs. D8 5 h: Predicted (LS) mean diff.: −0.5337
  Overall kinematic gait score, D7 vs. D8 9 h: Predicted (LS) mean diff.: −1.516
  Overall kinematic gait score, D7 vs. D9: Predicted (LS) mean diff.: −1.619
[1]
  Overall kinematic gait score, D7 vs. Baseline: Summary: ** (p<0.01, very significant)
  Overall kinematic gait score, D7 vs. Baseline: Predicted (LS) mean diff.: 2.236
[2]
  body weight development from D22 onwards: slower increase in body weight
[3]
  agonist potency at TRPA1 channels: most potent agonist of all the phytocannabinoids
[4]
  binds to CB1 receptors only at concentrations higher than: higher than 1 micromolar
[5]
  adverse effects: no hyper-reactivity or psychoactive adverse effects
[6]
  Ki: ~0.1 µM

## CC(C)C[C@H](CN)CC(=O)O [Pregabalin, pregabalin, reference compound]
[1]; [16]
  Duty Cycle [%]: Stats: 2.77
  Duty Cycle, Fore [%]: Stats: 3.26
  Mean Hip Jerk [m/s3]: Adjusted p-value: 0.001
  Mean Hip Jerk [m/s3]: Adjusted p-value Sig?: *** (*** p≤0.001)
  Mean Hip Jerk [m/s3]: Stats: −3.75
  Mean Hip Jerk [m/s3]: p-value: 0.001
[1]; BL (before dosing)
  Knee ROM Deviation [degree]: Stats: 3.23
[1]; [8]
  Overall kinematic gait score, Vehicle vs. treatment: Summary: * (p<0.05, significant)
  Overall kinematic gait score, Vehicle vs. treatment: Predicted (LS) mean diff.: −2.013
[1]; D7 (pre-dosing)
  Overall kinematic gait score, Vehicle vs. treatment: Summary: ns
  Overall kinematic gait score, Vehicle vs. treatment: Predicted (LS) mean diff.: −0.5896
[1]; [17]
  Paw Trajectory Shape 25%, Hind [%]: Stats: −3.01
  Relative Trajectory Length, Fore: Stats: −3.26
[1]; [9]
  Overall kinematic gait score, Vehicle vs. treatment: Summary: ns
  Overall kinematic gait score, Vehicle vs. treatment: Predicted (LS) mean diff.: −0.2262
[1]; D 8 5 h, vehicle vs. pregabalin 50 mg/kg
  Ankle Angle, Min [degree]: Stats: −2.99
[1]; D 8 5 h, CBC 10 mg/kg
  Ankle Angle, Max [degree]: Stats: −3.74
[1]; [11]
  Overall kinematic gait score, Vehicle vs. treatment: Summary: ns
  Overall kinematic gait score, Vehicle vs. treatment: Predicted (LS) mean diff.: −0.8408
[1]; D 8 9 h, vehicle vs. pregabalin 50 mg/kg
  Hip ROM [degree]: Stats: 2.85
[1]; [12]
  Overall kinematic gait score, Vehicle vs. treatment: Summary: ns
  Overall kinematic gait score, Vehicle vs. treatment: Predicted (LS) mean diff.: −0.8531
[1]; [15]
  Overall kinematic gait score, D7 vs. D8 5 h: Summary: ns
  Overall kinematic gait score, D7 vs. D8 9 h: Summary: ** (p<0.01, very significant)
  Overall kinematic gait score, D7 vs. D9: Summary: ns
  Overall kinematic gait score, D7 vs. D8 5 h: Predicted (LS) mean diff.: −1.135
  Overall kinematic gait score, D7 vs. D8 9 h: Predicted (LS) mean diff.: −2.27
  Overall kinematic gait score, D7 vs. D9: Predicted (LS) mean diff.: −1.271
[1]
  Overall kinematic gait score, D7 vs. Baseline: Summary: ** (p<0.01, very significant)
  Overall kinematic gait score, D7 vs. Baseline: Predicted (LS) mean diff.: 1.964

— patent publication US12616704B2, “Cannabichromene formulation for pain management” (Zyus Life Sciences Inc., priority 2020, dated 2026)
